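How tested: cells in 96-well plates exposed to compound for 48 hours at five concentrations. Definition used: TGI = concentration required for complete inhibition of growth.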
How the values were obtained:
Experiment in all cases: NCI-60 cell line screen, 48 h
[1] = test system: SW-620 colon
[2] = test system: SK-MEL-2 melanoma
[3] = test system: SF-268 CNS
[4] = test system: MCF7 breast
[5] = test system: TK-10 renal
[6] = test system: UACC-257 melanoma
[7] = test system: U251 CNS
[8] = test system: CAKI-1 renal
[9] = test system: NCI-H23 lung
[10] = test system: SF-295 CNS
[11] = test system: MDA-MB-231 breast
[12] = test system: NCI-H522 lung
[13] = test system: NCI/ADR-RES ovarian
[14] = test system: T-47D breast
[15] = test system: HOP-62 NSCLC
[16] = test system: HOP-92 NSCLC
[17] = test system: A549 NSCLC
[18] = test system: SNB-75 CNS
[19] = test system: RXF 393 renal
[20] = test system: OVCAR-3 ovarian
[21] = test system: KM12 colon
[22] = test system: COLO 205 colon
[23] = test system: 786-0 renal
[24] = test system: UO-31 renal
[25] = test system: HCT-116 colon
[26] = test system: HL-60(TB) leukemia
[27] = test system: MOLT-4 leukemia
[28] = test system: OVCAR-4 ovarian
[29] = test system: SF-539 CNS
[30] = test system: SK-MEL-5 melanoma
[31] = test system: NCI-H460 lung
[32] = test system: BT-549 breast
[33] = test system: DU-145 prostate
[34] = test system: PC-3 prostate
[35] = test system: EKVX NSCLC
[36] = test system: ACHN renal
[37] = test system: A498 renal
[38] = test system: LOX IMVI melanoma
[39] = test system: SK-OV-3 ovarian
[40] = test system: NCI-H226 lung
[41] = test system: CCRF-CEM leukemia
[42] = test system: UACC-62 melanoma
[43] = test system: M14 melanoma
[44] = test system: OVCAR-8 ovarian
[45] = test system: SK-MEL-28 melanoma
[46] = test system: HCC-2998 colon
[47] = test system: RPMI-8226 leukemia
[48] = test system: MDA-MB-435
[49] = test system: HCT-15 colon
[50] = test system: HT29 colon
[51] = test system: K-562 leukemia
[52] = test system: SN12C renal
[53] = test system: HS 578T breast
[54] = test system: MDA-N
[55] = test system: OVCAR-5 ovarian
[56] = test system: IGROV1 ovarian
[57] = test system: SNB-19 CNS
[58] = test system: SR leukemia
[59] = test system: MALME-3M melanoma

For `CN(N=O)C(=O)NNC(=O)N(C)N=O`, the TGI [1] was > 100 µM, the TGI [2] was > 100 µM and the TGI [3] was > 100 µM. For the same molecule, the TGI [4] was > 100 µM, the TGI [5] was > 100 µM and the TGI [6] was > 100 µM. For the same molecule, the TGI [7] was > 100 µM, the TGI [8] was > 100 µM and the TGI [9] was > 100 µM. For the same molecule, the TGI [10] was > 100 µM, the TGI [11] was > 100 µM and the TGI [12] was > 100 µM. The TGI [13] was > 100 µM, the TGI [14] was > 100 µM and the TGI [15] was > 100 µM. The TGI [16] was > 100 µM, the TGI [17] was > 100 µM and the TGI [18] was > 100 µM. The TGI [19] was 85.7 µM, the TGI [20] was > 100 µM and the TGI [21] was > 100 µM. The TGI [22] was > 100 µM, the TGI [23] was 95.1 µM and the TGI [24] was > 100 µM. The TGI [25] was > 100 µM, the TGI [26] was > 100 µM and the TGI [27] was > 100 µM. For the same molecule, the TGI [28] was > 100 µM, the TGI [29] was > 100 µM and the TGI [30] was > 100 µM. For the same molecule, the TGI [31] was > 100 µM, the TGI [32] was > 100 µM and the TGI [33] was > 100 µM. For the same molecule, the TGI [34] was > 100 µM, the TGI [35] was > 100 µM and the TGI [36] was > 100 µM. The TGI [37] was > 100 µM, the TGI [38] was > 100 µM and the TGI [39] was > 100 µM. For the same molecule, the TGI [40] was > 100 µM, the TGI [41] was > 100 µM and the TGI [42] was > 100 µM. The TGI [43] was > 100 µM, the TGI [44] was > 100 µM and the TGI [45] was > 100 µM. For the same molecule, the TGI [46] was > 100 µM, the TGI [47] was > 100 µM and the TGI [48] was > 100 µM. The TGI [49] was > 100 µM, the TGI [50] was > 100 µM and the TGI [51] was > 100 µM. For the same molecule, the TGI [52] was > 100 µM, the TGI [53] was > 100 µM and the TGI [54] was > 100 µM. The TGI [55] was > 100 µM, the TGI [56] was > 100 µM and the TGI [57] was > 100 µM. For the same molecule, the TGI [58] was > 100 µM.

For `CC1=C(C)C2(C#N)C(=O)N3C(=NC(c4ccccc4)NC3c3ccccc3)C2(C#N)C(c2ccccc2)N1` (stereo not given), the TGI [1] was > 100 µM, the TGI [2] was > 100 µM and the TGI [3] was > 100 µM. The TGI [4] was > 100 µM, the TGI [5] was > 100 µM and the TGI [6] was > 100 µM. For the same molecule, the TGI [7] was > 100 µM, the TGI [8] was > 100 µM and the TGI [9] was > 100 µM. For the same molecule, the TGI [10] was > 100 µM, the TGI [11] was > 100 µM and the TGI [12] was > 100 µM. The TGI [13] was > 100 µM, the TGI [14] was > 100 µM and the TGI [15] was > 100 µM. The TGI [16] was > 100 µM, the TGI [17] was > 100 µM and the TGI [19] was > 100 µM. For the same molecule, the TGI [59] was > 100 µM, the TGI [21] was > 100 µM and the TGI [22] was > 100 µM. For the same molecule, the TGI [23] was > 100 µM, the TGI [24] was > 100 µM and the TGI [25] was > 100 µM. The TGI [26] was > 100 µM, the TGI [27] was > 100 µM and the TGI [28] was > 100 µM. For the same molecule, the TGI [30] was > 100 µM, the TGI [31] was > 100 µM and the TGI [32] was > 100 µM. The TGI [33] was > 100 µM, the TGI [34] was > 100 µM and the TGI [35] was > 100 µM. The TGI [36] was > 100 µM, the TGI [37] was > 100 µM and the TGI [38] was > 100 µM. The TGI [39] was > 100 µM, the TGI [40] was > 100 µM and the TGI [41] was > 100 µM. For the same molecule, the TGI [42] was > 100 µM, the TGI [43] was > 100 µM and the TGI [44] was > 100 µM. The TGI [45] was > 100 µM, the TGI [46] was > 100 µM and the TGI [47] was > 100 µM. The TGI [48] was > 100 µM, the TGI [49] was > 100 µM and the TGI [50] was > 100 µM. The TGI [51] was > 100 µM, the TGI [52] was > 100 µM and the TGI [53] was > 100 µM. The TGI [54] was > 100 µM, the TGI [55] was > 100 µM and the TGI [56] was > 100 µM. For the same molecule, the TGI [57] was > 100 µM and the TGI [58] was > 100 µM.

In the case of `COc1ccc2c(c1)CCc1cc(C(N)=O)c3nnnn3c1-2`, the TGI [1] was > 100 µM, the TGI [2] was > 75.5 µM and the TGI [3] was 29.3 µM. For the same molecule, the TGI [4] was > 100 µM, the TGI [5] was > 100 µM and the TGI [6] was > 100 µM. For the same molecule, the TGI [7] was > 67.4 µM, the TGI [8] was > 100 µM and the TGI [9] was > 100 µM. The TGI [10] was 98.5 µM, the TGI [11] was > 100 µM and the TGI [12] was > 100 µM. The TGI [13] was > 100 µM, the TGI [14] was > 100 µM and the TGI [15] was > 100 µM. For the same molecule, the TGI [16] was > 100 µM, the TGI [17] was > 100 µM and the TGI [19] was 63 µM. For the same molecule, the TGI [20] was > 100 µM, the TGI [59] was > 100 µM and the TGI [21] was > 100 µM. The TGI [22] was > 100 µM, the TGI [23] was > 100 µM and the TGI [25] was > 100 µM. For the same molecule, the TGI [26] was > 100 µM, the TGI [27] was > 76.9 µM and the TGI [28] was > 100 µM. The TGI [29] was > 100 µM, the TGI [30] was > 100 µM and the TGI [31] was 50.9 µM. For the same molecule, the TGI [32] was > 100 µM, the TGI [33] was > 100 µM and the TGI [34] was > 100 µM. The TGI [36] was > 100 µM, the TGI [37] was 62.2 µM and the TGI [38] was > 100 µM. For the same molecule, the TGI [39] was > 100 µM, the TGI [40] was > 100 µM and the TGI [41] was > 91.2 µM. The TGI [42] was 23.9 µM, the TGI [43] was > 100 µM and the TGI [44] was > 100 µM. The TGI [45] was > 100 µM, the TGI [46] was > 100 µM and the TGI [47] was > 100 µM. The TGI [48] was > 100 µM, the TGI [49] was > 100 µM and the TGI [50] was > 100 µM. For the same molecule, the TGI [51] was > 100 µM, the TGI [52] was > 100 µM and the TGI [53] was > 100 µM. The TGI [54] was > 100 µM, the TGI [55] was > 100 µM and the TGI [56] was > 100 µM. For the same molecule, the TGI [57] was > 100 µM and the TGI [58] was > 100 µM.

— PubChem BioAssay (NCI)
